Results taken from patent US20240327412A1, “FACTOR XIIA INHIBITORS” (KALVISTA PHARMACEUTICALS LIMITED, priority 2021, published 2024).

Assays:
Type in all cases: biochemical
Human Factor XIIa = target: T1, Human Factor XIIa (Homo sapiens, UniProt P00748); assay: Determination of FXIIa inhibition (fluorogenic substrate H-DPro-Phe-Arg-AFC, IC50 assay); settings: substrate at Km concentration, 25° C.; category scale; read-out: Human FXII IC50 (nm)
T1 construct: Proteolytic cleavage of FXII to heavy and light chains of FXIIa dramatically increases catalytic activity; purchased Enzyme Research Laboratories
T1 sequence (P00748 373-615 limits assumed): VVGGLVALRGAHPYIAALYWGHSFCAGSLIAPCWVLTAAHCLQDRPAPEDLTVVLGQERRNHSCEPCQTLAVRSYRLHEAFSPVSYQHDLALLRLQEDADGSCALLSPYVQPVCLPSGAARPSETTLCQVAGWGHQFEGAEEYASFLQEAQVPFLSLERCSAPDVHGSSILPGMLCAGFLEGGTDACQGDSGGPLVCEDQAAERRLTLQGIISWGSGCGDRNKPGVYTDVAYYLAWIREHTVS
T1 sequence (P00748 20-372 partner limits assumed): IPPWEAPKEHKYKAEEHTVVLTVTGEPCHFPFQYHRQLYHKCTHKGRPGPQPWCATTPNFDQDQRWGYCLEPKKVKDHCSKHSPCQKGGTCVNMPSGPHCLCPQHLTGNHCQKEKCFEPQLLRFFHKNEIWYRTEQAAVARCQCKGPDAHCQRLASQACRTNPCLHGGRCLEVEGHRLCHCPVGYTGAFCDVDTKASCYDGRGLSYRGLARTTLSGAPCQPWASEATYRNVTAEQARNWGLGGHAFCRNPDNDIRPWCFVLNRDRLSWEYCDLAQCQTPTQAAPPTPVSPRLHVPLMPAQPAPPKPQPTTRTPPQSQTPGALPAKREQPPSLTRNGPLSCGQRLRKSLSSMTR
Outline: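 At substrate Km and 25° C., the rate of AFC release from H-DPro-Phe-Arg-AFC by human Factor XIIa was followed for 5 min across compound concentrations. Inhibition was derived as percent of uninhibited rate, giving IC50.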

KLK1 = KLK1 (Homo sapiens, UniProt P06870); assay: Related protease inhibition: KLK1 (fluorogenic substrate at Km); settings: class symbols per Table 18
Sequence of KLK1 (P06870 25-262): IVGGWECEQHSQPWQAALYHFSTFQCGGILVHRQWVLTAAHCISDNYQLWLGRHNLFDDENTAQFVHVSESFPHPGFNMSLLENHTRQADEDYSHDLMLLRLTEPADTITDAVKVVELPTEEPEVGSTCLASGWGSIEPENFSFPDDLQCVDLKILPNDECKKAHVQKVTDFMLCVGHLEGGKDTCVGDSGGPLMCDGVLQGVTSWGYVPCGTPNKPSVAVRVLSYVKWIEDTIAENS
Protocol: (§1) In vitro inhibition of related proteases was determined using an IC50 assay based on standard literature methods (see e.g. Shori et al., Biochem. Pharmacol., 1992, 43, 1209; Bouckaert et al., European Journal of Medicinal Chemistry 110 (2016) 181). Human serine protease enzyme Plasma Kallikrein, KLK1, FXa, Plasmin, Thrombin and Trypsin were assayed for enzymatic activity using an appropriate fluorogenic substrate at Km concentration, FXIa at fixed substrate concentration of 100 μM and various concentrations of the test compound. Protease activity was measured by monitoring the accumulation of liberated fluorescence from the substrate over 5 min at 25° C. The linear rate of fluorescence increase per minute was expressed as percentage (%) activity. IC50 values were calculated as the concentration of inhibitor giving 50% inhibition of the uninhibited enzyme activity (100%).

FXa = FXa (Homo sapiens, UniProt P00742); assay: Related protease inhibition: FXa (fluorogenic substrate at Km); settings: class symbols per Table 18
Sequence of FXa (P00742 235-488 limits assumed): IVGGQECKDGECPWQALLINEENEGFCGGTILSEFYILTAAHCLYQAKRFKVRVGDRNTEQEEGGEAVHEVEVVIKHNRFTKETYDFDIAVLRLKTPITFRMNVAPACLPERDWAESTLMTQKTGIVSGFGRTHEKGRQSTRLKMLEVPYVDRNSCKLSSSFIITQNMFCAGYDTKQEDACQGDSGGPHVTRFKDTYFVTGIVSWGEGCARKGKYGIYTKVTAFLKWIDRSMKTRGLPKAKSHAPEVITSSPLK
Sequence of FXa (P00742 41-179 partner limits assumed): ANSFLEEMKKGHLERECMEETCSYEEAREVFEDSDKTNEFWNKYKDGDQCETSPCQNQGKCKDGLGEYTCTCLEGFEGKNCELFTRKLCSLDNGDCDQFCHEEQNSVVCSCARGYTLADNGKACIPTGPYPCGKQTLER
Protocol: as §1

Plasma Kallikrein = target: T2, Plasma Kallikrein (Homo sapiens, UniProt P03952); assay: Related protease inhibition: Plasma Kallikrein (fluorogenic substrate at Km); settings: class symbols per Table 18, read-out: IC50 (human PKal)
T2 construct: FXIIa converts plasma prekallikrein (PK) to plasma kallikrein (PKa)
T2 sequence (P03952 391-638 limits assumed): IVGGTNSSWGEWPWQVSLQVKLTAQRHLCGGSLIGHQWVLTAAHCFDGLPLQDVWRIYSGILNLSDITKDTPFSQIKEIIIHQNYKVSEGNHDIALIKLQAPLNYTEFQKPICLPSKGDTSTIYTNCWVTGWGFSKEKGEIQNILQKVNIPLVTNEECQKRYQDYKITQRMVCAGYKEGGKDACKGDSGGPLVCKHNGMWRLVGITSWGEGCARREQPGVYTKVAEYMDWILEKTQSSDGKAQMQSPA
T2 sequence (P03952 20-390 partner limits assumed): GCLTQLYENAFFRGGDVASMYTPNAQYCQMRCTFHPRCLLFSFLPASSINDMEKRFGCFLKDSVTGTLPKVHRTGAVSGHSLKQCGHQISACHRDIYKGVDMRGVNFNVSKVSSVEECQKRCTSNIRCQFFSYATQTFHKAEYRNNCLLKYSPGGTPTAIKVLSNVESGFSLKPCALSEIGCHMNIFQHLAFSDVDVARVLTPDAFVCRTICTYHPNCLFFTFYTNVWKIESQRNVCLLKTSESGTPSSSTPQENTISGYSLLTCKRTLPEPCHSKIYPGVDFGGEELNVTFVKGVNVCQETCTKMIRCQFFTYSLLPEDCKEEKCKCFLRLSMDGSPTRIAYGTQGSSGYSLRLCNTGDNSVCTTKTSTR
Protocol: as §1

| SMILES | IC50 (Human Factor XIIa) [µM] | IC50 (KLK1) [µM] | IC50 (FXa) [µM] | IC50 (Plasma Kallikrein) [µM] |
| --- | --- | --- | --- | --- |
| Nc1nccc2c(NCC34CC(COc5ccc6nc(C(F)(F)F)cn6n5)(CO3)C4)cccc12 [Example 6615, N5-((4-(((2-(trifluoromethyl)imidazo[1,2-b]pyridazin-6-yl)oxy)methyl)-2-oxabicyclo[2.1.1]hexan-1-yl)methyl)isoquinoline-1,5-diamine] | 3 to 10 | 3 to 10 | > 40 | – |
| Cc1c(OCC23COC(CNc4cccc5c(N)nccc45)(C2)C3)ccc2nccn12 [Example 6626, N5-((4-(((5-methylimidazo[1,2-a]pyridin-6-yl)oxy)methyl)-2-oxabicyclo[2.1.1]hexan-1-yl)methyl)isoquinoline-1,5-diamine] | 0.01 to 0.1 | 1 to 3 | – | – |
| Clc1cc2c(NCC34CC(COc5ccn6ccnc6c5)(C3)C4)ccnc2[nH]1 [Example 1010] | 0.3 to 1 | > 40 | 1 to 3 | – |
| Cc1cc2nccn2cc1OCC12COC(CNc3cccc4c(N)nccc34)(C1)C2 [Example 6622, N5-((4-(((7-methylimidazo[1,2-a]pyridin-6-yl)oxy)methyl)-2-oxabicyclo[2.1.1]hexan-1-yl)methyl)isoquinoline-1,5-diamine] | 0.01 to 0.1 | 1 to 3 | – | – |
| Nc1nccc2c(NCC34CC(COc5ccn6cc(C(F)F)nc6c5)(CO3)C4)cccc12 [Example 6613, N5-((4-(((2-(difluoromethyl)imidazo[1,2-a]pyridin-7-yl)oxy)methyl)-2-oxabicyclo[2.1.1]hexan-1-yl)methyl)isoquinoline-1,5-diamine] | 0.3 to 1 | 3 to 10 | 10 to 40 | – |
| Nc1nccc2c(NCC34CC(COc5ccc6ncc(C(F)(F)F)n6c5)(CO3)C4)cccc12 [Example 6627, N5-((4-(((3-(trifluoromethyl)imidazo[1,2-a]pyridin-6-yl)oxy)methyl)-2-oxabicyclo[2.1.1]hexan-1-yl)methyl)isoquinoline-1,5-diamine] | 1 to 3 | 3 to 10 | – | – |
| Nc1nccc2c(OCC34CC(CNc5ccc6nccn6c5)(CO3)C4)cccc12 [Example 6619, 5-((4-((imidazo[1,2-a]pyridin-6-ylamino)methyl)-2-oxabicyclo[2.1.1]hexan-1-yl)methoxy)isoquinolin-1-amine] | 0.3 to 1 | 10 to 40 | – | – |
| c1cc(NCC23CC(COc4ccn5ccnc5c4)(C2)C3)c2cc[nH]c2n1 [Example 1009, N-((3-((imidazo[1,2-a]pyridin-7-yloxy)methyl)bicyclo[1.1.1]pentan-1-yl)methyl)-1H-pyrrolo[2,3-b]pyridin-4-amine] | 10 to 40 | > 100 | – | > 100 |
| Nc1nccc2c(NCC34CC(COc5cn6ccnc6cn5)(CO3)C4)cccc12 [Example 6616, N5-((4-((imidazo[1,2-a]pyrazin-6-yloxy)methyl)-2-oxabicyclo[2.1.1]hexan-1-yl)methyl)isoquinoline-1,5-diamine] | 0.3 to 1 | 3 to 10 | > 40 | – |
| Nc1nccc2c(OCC34CC(COc5ccn6ccnc6c5)(C3)C4)cccc12 [Example 1013, 5-[[3-(Imidazo[1,2-a]pyridin-7-yloxymethyl)-1-bicyclo[1.1.1]pentanyl]methoxy]isoquinolin-1-amine] | 0.3 to 1 | – | – | > 40 |
| Nc1nccc2c(NCC34COC(COc5ccc6ncnn6c5)(C3)C4)cccc12 [Example 2210, N5-((1-(([1,2,4]triazolo[1,5-a]pyridin-6-yloxy)methyl)-2-oxabicyclo[2.1.1]hexan-4-yl)methyl)isoquinoline-1,5-diamine] | 1 to 3 | – | – | > 40 |

Now from value to molecule:

| IC50 (Human Factor XIIa) [µM] | IC50 (KLK1) [µM] | IC50 (FXa) [µM] | IC50 (Plasma Kallikrein) [µM] | SMILES |
| --- | --- | --- | --- | --- |
| 0.1 to 0.3 | 3 to 10 | – | – | CN1Cc2ccc(OCC34COC(CNc5cccc6c(N)nccc56)(C3)C4)cc2C1=O [Example 6628, 6-((1-(((1-aminoisoquinolin-5-yl)amino)methyl)-2-oxabicyclo[2.1.1]hexan-4-yl)methoxy)-2-methylisoindolin-1-one] |
| 0.1 to 0.3 | 3 to 10 | > 40 | – | Nc1nccc2c(NCC34CCCC(COc5ccc6nccn6c5)(C3)C4)cccc12 [Example 10942, N5-((5-((imidazo[1,2-a]pyridin-6-yloxy)methyl)bicyclo[3.1.1]heptan-1-yl)methyl)isoquinoline-1,5-diamine] |
| – | > 100 | > 40 | > 40 | Clc1cccc(NCC23CC(COc4ccn5ccnc5c4)(CCO2)C3)c1 [Example 10919, 3-chloro-N-((5-((imidazo[1,2-a]pyridin-7-yloxy)methyl)-2-oxabicyclo[3.1.1]heptan-1-yl)methyl)aniline] |
| 0.1 to 0.3 | 3 to 10 | – | – | Nc1nccc2c(NCC34CC(COc5cc(Cl)c6nccn6c5)(CCO3)C4)cccc12 [Example 10924, N5-((5-(((8-chloroimidazo[1,2-a]pyridin-6-yl)oxy)methyl)-2-oxabicyclo[3.1.1]heptan-1-yl)methyl)isoquinoline-1,5-diamine] |
| 0.3 to 1 | 10 to 40 | – | – | Nc1nccc2c(N3CCC4(CC(COc5ccn6ccnc6c5)C4)C3)cccc12 (stereo not drawn) [Example 8807, 5-(cis*-2-((imidazo[1,2-a]pyridin-7-yloxy)methyl)-6-azaspiro[3.4]octan-6-yl)isoquinolin-1-amine] |
| – | > 100 | > 40 | > 40 | Clc1ccc(NCC23CC(COc4ccn5ccnc5c4)(CCO2)C3)cc1 [Example 10918, 4-chloro-N-((5-((imidazo[1,2-a]pyridin-7-yloxy)methyl)-2-oxabicyclo[3.1.1]heptan-1-yl)methyl)aniline] |
| 0.01 to 0.1 | 3 to 10 | – | – | Cc1cc(OCC23CCOC(CNc4cccc5c(N)nccc45)(C2)C3)cc2nccn12 [Example 10925, N5-((5-(((5-methylimidazo[1,2-a]pyridin-7-yl)oxy)methyl)-2-oxabicyclo[3.1.1]heptan-1-yl)methyl)isoquinoline-1,5-diamine] |
| 0.1 to 0.3 | 0.3 to 1 | – | – | Cc1c(OCC23CCOC(CNc4cccc5c(N)nccc45)(C2)C3)ccn2ccnc12 [Example 10923, N5-((5-(((8-methylimidazo[1,2-a]pyridin-7-yl)oxy)methyl)-2-oxabicyclo[3.1.1]heptan-1-yl)methyl)isoquinoline-1,5-diamine] |
| 0.1 to 0.3 | 0.01 to 0.1 | – | – | Cn1ccc(OCC23CN(C(=O)OCc4ccccc4)C(CNc4ccc5c(N)nccc5c4)(C2)C3)cc1=O [Example 12010, benzyl 1-(((1-aminoisoquinolin-6-yl)amino)methyl)-4-(((1-methyl-2-oxo-1,2-dihydropyridin-4-yl)oxy)methyl)-2-azabicyclo[2.1.1]hexane-2-carboxylate] |
| 40 to 100 | 10 to 40 | – | – | Clc1ccc2c(NCC34CC(COc5ccn6ccnc6c5)(CCO3)C4)ccnc2c1 [Example 10921, 7-chloro-N-((5-((imidazo[1,2-a]pyridin-7-yloxy)methyl)-2-oxabicyclo[3.1.1]heptan-1-yl)methyl)quinolin-4-amine] |
| 0.3 to 1 | 0.3 to 1 | – | – | Nc1ncc(Cl)c2cc(NCC34CC(COc5ccn6ccnc6c5)(CCO3)C4)ccc12 [Example 10922, 4-chloro-N6-((5-((imidazo[1,2-a]pyridin-7-yloxy)methyl)-2-oxabicyclo[3.1.1]heptan-1-yl)methyl)isoquinoline-1,6-diamine] |
| 0.3 to 1 | – | – | > 40 | CC1(C)OC2(COc3cccc4c(N)nccc34)CC1(COc1ccc3nccn3c1)C2 [Example 7704, 5-((4-((imidazo[1,2-a]pyridin-6-yloxy)methyl)-3,3-dimethyl-2-oxabicyclo[2.1.1]hexan-1-yl)methoxy)isoquinolin-1-amine] |
| 0.3 to 1 | – | – | > 4 | Nc1nccc2c(NCC34CC(COC5CCn6ccnc6C5)(CCO3)C4)cccc12 (centres unmarked) [Example 10903, N5-((5-(((5,6,7,8-tetrahydroimidazo[1,2-a]pyridin-7-yl)oxy)methyl)-2-oxabicyclo[3.1.1]heptan-1-yl)methyl)isoquinoline-1,5-diamine] |
